According to patent publication US9550796B2, “Pyrrolopyrrolone derivatives and their use as BET inhibitors” (NOVARTIS AG, priority 2013, dated 2017):

Columns and labels:
BRD4 = BRD4 (Homo sapiens (Human), UniProt O60885); assay: TR-FRET in-vitro binding assay for BRD4; details: 45 nM His-Brd4(44-477), acetyl-histone H4 (AcK 5, 8, 12, 16) peptide
Procedure, shortened: (§1)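 TR-FRET binding read after 35 min incubation at 30° C. Compounds dispensed from 90% DMSO solutions and tested at 8 concentrations in a 13.55 μL total reaction volume.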

BRD2 = BRD2 (Homo sapiens (Human), UniProt P25440); assay: TR-FRET in-vitro binding assay for BRD2; details: 45 nM His-Brd2(60-472), acetyl-histone H4 (AcK 5, 8, 12, 16) peptide
Procedure, shortened: as §1

BRD3 = BRD3 (Homo sapiens (Human), UniProt Q15059); assay: TR-FRET in-vitro binding assay for BRD3; details: 45 nM His-Brd3(20-477), acetyl-histone H4 (AcK 5, 8, 12, 16) peptide
Procedure, shortened: as §1

MV-4-11 = assay: Cell growth inhibition assay (CellTiter-Glo), MV-4-11; assay type: cell-based, human; details: MV-4-11 cells, 4 days; for GI50: Homo sapiens, MV4-11, 96 h, half-maximal growth inhibition; for MV-4-11 TGI: total growth inhibition
Procedure, shortened: (§2)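 4-day CTG ATP readout, 37 °C/5% CO2; top conc 10 μM, 3-fold dilutions; 0.1% DMSO vehicle. Luminescence background-subtracted, normalised to day 0 plate; vehicle = 100%, medium = −100%. IC50/TGI by 4-parameter fit.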

THP-1 = assay: Cell growth inhibition assay (CellTiter-Glo), THP-1; assay type: cell-based, human; details: THP-1 cells, 4 days; for GI50: Homo sapiens, 96 h, half-maximal growth inhibition; for THP-1 TGI: total growth inhibition
Procedure, shortened: as §2

K-562 = assay: Cell growth inhibition assay (CellTiter-Glo), K-562; assay type: cell-based, human; details: K-562 cells, 4 days; for GI50: Homo sapiens, K562, 96 h, half-maximal growth inhibition; for K-562 TGI: total growth inhibition
Procedure, shortened: as §2

BRD4-NUT-fusion = BRD4-NUT-fusion (Homo sapiens, UniProt O60885); assay: Nut-foci formation assay in HCC2494 NUT midline carcinoma cells; assay type: cell-based; details: 24 hours, nuclear BRD4-NUT foci by immunofluorescence microscopy, read-out: HCS Brd4-NUT IC50
Protocol: Nut-Foci Formation Assay […] Compound-mediated inhibition of BRD4 activity can be monitored by quantification of the number and intensity of nuclear BRD4-NUT foci using automated immunofluorescence microscopy. Briefly, 5000 cells in 20 μL fresh medium are seeded into Poly-D-Lysine-precoated 384-well plates and incubated overnight at 37° C. and 5% CO2, followed by addition of 5 μl medium containing compound dilutions at 5-fold their final intended concentration. […] Assay plates can be imaged using the appropriate filter sets on the Cellomics VTi automated fluorescence microscopy platform (ThermoFisher Scientific) and the population average of the number of NUT-foci per nucleus is quantified using the Cellomics Spot Detection BioApplication image analysis algorithm (ThermoFisher Scientific). […] Compound concentrations leading to half-maximal (IC50) inhibition of the aforementioned readout parameters are determined using standard four parameter curve fitting.

CREBBP = CREBBP (Homo sapiens (Human), UniProt Q92793); assay: AlphaScreen in-vitro binding assay for CREBBP; details: 324 nM His-CREBBP (1081-1197), acetyl-histone H4 (AcK 5, 8, 12) peptide
Procedure, shortened: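 IC50 values were derived by non-linear regression of percent inhibition across 8 compound concentrations. Protein was His-tagged CREBBP bromodomain (1081-1197), peptide acetyl-histone H4 (AcK 5, 8, 12), in HEPES pH 7.5 buffer. Read-out was AlphaScreen with Ni-chelate acceptor and streptavidin donor beads, 35 min at 30° C then 60 min at RT.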

Sequence of BRD2 (P25440 60-472): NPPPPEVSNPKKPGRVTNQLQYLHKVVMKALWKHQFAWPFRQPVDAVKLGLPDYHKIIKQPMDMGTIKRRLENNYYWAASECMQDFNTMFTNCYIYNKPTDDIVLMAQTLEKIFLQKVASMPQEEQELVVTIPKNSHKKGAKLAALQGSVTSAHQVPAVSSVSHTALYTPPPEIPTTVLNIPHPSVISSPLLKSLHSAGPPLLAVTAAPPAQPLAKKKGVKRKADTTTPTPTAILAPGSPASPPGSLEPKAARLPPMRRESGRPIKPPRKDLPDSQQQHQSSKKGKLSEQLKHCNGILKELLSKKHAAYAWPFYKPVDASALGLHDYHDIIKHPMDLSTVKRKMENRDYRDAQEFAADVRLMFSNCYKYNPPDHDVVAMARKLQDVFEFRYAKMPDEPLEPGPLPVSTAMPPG
Sequence of CREBBP (Q92793 1081-1197): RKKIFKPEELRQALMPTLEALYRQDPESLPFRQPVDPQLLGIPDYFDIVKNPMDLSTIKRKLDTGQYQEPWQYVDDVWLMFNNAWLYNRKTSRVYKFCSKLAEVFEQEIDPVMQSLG
Sequence of BRD3 (Q15059 20-477): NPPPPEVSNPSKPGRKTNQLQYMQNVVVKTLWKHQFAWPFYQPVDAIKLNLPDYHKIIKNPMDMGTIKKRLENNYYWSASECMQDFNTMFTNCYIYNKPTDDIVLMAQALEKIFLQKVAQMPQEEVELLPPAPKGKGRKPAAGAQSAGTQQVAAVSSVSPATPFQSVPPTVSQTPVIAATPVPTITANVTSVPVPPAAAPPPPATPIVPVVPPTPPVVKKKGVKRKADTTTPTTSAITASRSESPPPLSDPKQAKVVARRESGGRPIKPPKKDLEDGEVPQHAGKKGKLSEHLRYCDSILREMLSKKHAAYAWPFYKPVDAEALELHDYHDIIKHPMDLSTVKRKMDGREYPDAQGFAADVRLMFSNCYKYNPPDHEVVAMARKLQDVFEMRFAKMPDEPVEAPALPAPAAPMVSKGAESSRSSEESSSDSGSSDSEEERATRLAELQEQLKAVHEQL

Structure (SMILES)	IC50 (BRD4)	IC50 (BRD2)	IC50 (BRD3)	GI50 (MV-4-11)	GI50 (THP-1)	GI50 (K-562)	IC50 (BRD4-NUT-fusion)	IC50 (CREBBP)	MV-4-11 TGI (MV-4-11)	THP-1 TGI (THP-1)	K-562 TGI (K-562)
Cc1cc(N2C(=O)c3cc(-c4ccc(N(C)C)nc4)n(C)c3C2c2ccc(Cl)cc2)cn(C)c1=O (centres unmarked) [Example 50, 6-(4-chlorophenyl)-5-(1,5-dimethyl-6-oxo-1,6-dihydropyridin-3-yl)-2-(6-(dimethylamino)pyridin-3-yl)-1-methyl-5,6-dihydropyrrolo[3,4-b]pyrrol-4(1H)-one]	46 nM	37 nM	42 nM	20.8 nM	31.6 nM	105 nM	73.3 nM	–	33 nM	64.9 nM	>10000 nM
Cc1c[nH]c2c1C(=O)N(c1cc(C)c3nnc(C)n3c1)C2c1ccc(Cl)cc1 (centres unmarked) [Example 3, 6-(4-chlorophenyl)-5-(3,8-dimethyl-[1,2,4]triazolo[4,3-a]pyridin-6-yl)-3-methyl-5,6-dihydropyrrolo[3,4-b]pyrrol-4(1H)-one]	14 nM	24 nM	16 nM	7.68 nM	15.7 nM	55.4 nM	–	8200 nM	18.75 nM	36.9 nM	>10000 nM
Cc1cc(N2C(=O)c3cc(-c4ccccn4)n(C)c3C2c2ccc(Cl)cc2)cn(C)c1=O (centres unmarked) [Example 52, 6-(4-chlorophenyl)-5-(1,5-dimethyl-6-oxo-1,6-dihydropyridin-3-yl)-1-methyl-2-(pyridin-2-yl)-5,6-dihydropyrrolo[3,4-b]pyrrol-4(1H)-one]	55.3 nM	67 nM	54 nM	872 nM	776 nM	2750 nM	–	720 nM	2355 nM	2630 nM	>10000 nM
CNC(=O)c1cn(C)c2c1C(=O)N(c1cc(C)c3nnn(C)c3n1)C2c1ccc(Cl)cc1 (centres unmarked) [Example 93, 6-(4-chlorophenyl)-5-(3,7-dimethyl-3H-[1,2,3]triazolo[4,5-b]pyridin-5-yl)-N,1-dimethyl-4-oxo-1,4,5,6-tetrahydropyrrolo[3,4-b]pyrrole-3-carboxamide]	13 nM	15 nM	14 nM	2.54 nM	3.12 nM	27.4 nM	–	> 37000 nM	10.49 nM	11.24 nM	>10000 nM

The remaining molecules from weak to strong by IC50 (BRD4), led by results:

IC50 (BRD4)	IC50 (BRD2)	IC50 (BRD3)	GI50 (MV-4-11)	GI50 (THP-1)	GI50 (K-562)	IC50 (BRD4-NUT-fusion)	IC50 (CREBBP)	Structure (SMILES)	MV-4-11 TGI (MV-4-11)	THP-1 TGI (THP-1)	K-562 TGI (K-562)
150 nM	–	–	486 nM	573 nM	1610 nM	729 nM	–	Cn1ccc2c1C(c1ccc(Cl)cc1)N(c1ccc(=O)n(C)c1)C2=O (centres unmarked) [Example 78, 6-(4-chlorophenyl)-1-methyl-5-(1-methyl-6-oxo-1,6-dihydropyridin-3-yl)-5,6-dihydropyrrolo[3,4-b]pyrrol-4(1H)-one]	794.5 nM	1350 nM	>10000 nM
68 nM	68 nM	53 nM	61.6 nM	102 nM	421 nM	136 nM	–	Cc1cc(N2C(=O)c3ccn(C4CC4)c3C2c2ccc(Cl)cc2)cn(C)c1=O (centres unmarked) [Example 61, 6-(4-chlorophenyl)-1-cyclopropyl-5-(1,5-dimethyl-6-oxo-1,6-dihydropyridin-3-yl)-5,6-dihydropyrrolo[3,4-b]pyrrol-4(1H)-one]	106 nM	224 nM	>10000 nM
52 nM	53 nM	50 nM	34.5 nM	76.3 nM	231 nM	146 nM	–	COc1ncc(-c2cc3c(n2C)C(c2ccc(Cl)cc2)N(c2cc(C)c(=O)n(C)c2)C3=O)cn1 (centres unmarked) [Example 55, 6-(4-chlorophenyl)-5-(1,5-dimethyl-6-oxo-1,6-dihydropyridin-3-yl)-2-(2-methoxypyrimidin-5-yl)-1-methyl-5,6-dihydropyrrolo[3,4-b]pyrrol-4(1H)-one]	54.2 nM	130 nM	>10000 nM
